# Test results from patent US20230099344A1, “COMPOUNDS AND METHODS FOR THE TARGETED DEGRADATION OF IRAK-4” (Arvinas Operations, Inc., priority 2021, published 2023).
# Assays:
# IL6 [1] = assay: LPS stimulated IL6 inhibition assay in PBMC; assay type: cell-based; conditions: Homo sapiens, PBMC, 24 h, human PBMCs, LPS stimulation, compound overnight, IL6 by MSD after 24 hrs
# Procedure, shortened: (§1)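 Human PBMC at 2.0×10^6 cells/mL were pre-treated with compound overnight, then stimulated with IL-1β, LPS or R848, each at the donor-specific EC50 concentration. After 24 hrs, supernatant IL6 and/or IL8 was measured by MSD.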
# IL6 [2] = assay: R848 stimulated IL6 inhibition assay in PBMC; assay type: cell-based; conditions: PBMC, human PBMCs, R848 stimulation, compound overnight, IL6 by MSD after 24 hrs
# Procedure, shortened: as §1
# IRAK-4 [3] = target: T1, IRAK-4 (Mus musculus, UniProt Q8R4K2); assay: PD study in wild type mice (spleen and lung); assay type: in vivo; conditions: oral 10, 30 or 90 mg/kg, terminated 24 h later, ELISA, vs vehicle, FIGS. 3A and 3B
# T1 construct: plasma, spleen and lung tissue were collected for analysis of compound concentration and IRAK-4 quantification; from tissue; host or cells: spleen and lung of wild type mice
# T1 sequence (Q8R4K2 1-459): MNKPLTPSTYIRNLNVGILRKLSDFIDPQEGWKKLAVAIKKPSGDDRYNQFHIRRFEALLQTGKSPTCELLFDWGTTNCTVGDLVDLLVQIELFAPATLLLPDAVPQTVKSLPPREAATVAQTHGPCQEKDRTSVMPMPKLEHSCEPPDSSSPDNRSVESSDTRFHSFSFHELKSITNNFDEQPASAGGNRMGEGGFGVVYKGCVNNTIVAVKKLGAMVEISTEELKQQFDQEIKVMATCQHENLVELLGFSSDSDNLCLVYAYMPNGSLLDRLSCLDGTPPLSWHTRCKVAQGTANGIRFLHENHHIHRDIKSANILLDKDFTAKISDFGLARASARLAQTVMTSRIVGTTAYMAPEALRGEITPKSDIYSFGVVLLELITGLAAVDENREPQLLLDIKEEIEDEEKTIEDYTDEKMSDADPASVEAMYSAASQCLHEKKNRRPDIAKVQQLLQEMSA
# Method: FIGS. 3A and 3B. PD study in wild type mice.
# A PD Study in Wild Type Mice was Performed
# In FIGS. 3A and 3B, mice were randomly assigned to each treatment group. Animals were dosed orally with 10, 30, or 90 mg/kg compound formulated in 10% DMSO, 90% (2% Tween 80 in PEG 400) and terminated 24 h later. At termination, plasma, spleen and lung tissue were collected for analysis of compound concentration and IRAK-4 quantification. Spleen and lung were snap frozen. IRAK-4 content in any tissue is assessed with the same protocol described for tumor lysates.
# IRAK-4 [4] = target: T2, IRAK-4 (Homo sapiens, UniProt Q9NWZ3); assay: IRAK-4 ELISA, PBMC degradation; assay type: cell-based; set-up: endogenous in cells; host or cells: PBMC; conditions: treated overnight
# T2 sequence (Q9NWZ3 1-460): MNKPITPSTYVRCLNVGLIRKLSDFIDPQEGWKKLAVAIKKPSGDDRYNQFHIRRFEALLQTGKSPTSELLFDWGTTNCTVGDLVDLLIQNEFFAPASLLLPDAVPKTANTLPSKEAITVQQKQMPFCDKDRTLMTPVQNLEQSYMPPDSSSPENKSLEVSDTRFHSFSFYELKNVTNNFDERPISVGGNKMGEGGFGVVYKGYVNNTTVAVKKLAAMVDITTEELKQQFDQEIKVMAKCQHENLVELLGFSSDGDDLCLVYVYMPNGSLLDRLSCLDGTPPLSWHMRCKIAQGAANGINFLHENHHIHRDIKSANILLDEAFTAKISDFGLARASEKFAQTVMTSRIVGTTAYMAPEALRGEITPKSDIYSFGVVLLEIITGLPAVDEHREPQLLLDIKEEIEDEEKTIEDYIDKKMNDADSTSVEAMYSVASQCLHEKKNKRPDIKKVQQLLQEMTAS
# Procedure, shortened: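 OCI-Ly10 cells (1×10^6/ml) or PBMC (2×10^6/ml) treated with compound on the day of seeding and incubated overnight. IRAK-4 protein remaining in cell lysates quantified by sandwich ELISA.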
# IRAK-4 [5] = target: T2, IRAK-4; assay: PD study in C.B.17 SCID mice with OCI-LY1 tumor xenograft; assay type: in vivo; set-up: from tissue; host or cells: OCI-Ly1 tumour xenograft from C.B.17 SCID mice; conditions: OCI-Ly1 tumor lysate, ELISA normalized to total protein; oral 5, 15 or 50 mg/kg, 24 hours post-dose; vs vehicle; FIG. 2
# Method: FIG. 2. PD study in C.B.17 SCID mice with OCI-LY1 tumor xenograft.
# PD Study for with in C.B.17 SCID and WT Mice
# Cell culture: OCI-Ly1 tumor cells were maintained as a suspension in IMDM medium supplemented with 20% fetal bovine serum under an atmosphere of 5% C02 in air at 37° C. Cell density was maintained below 1×10^6/mL.
# Animals: Female C.B. 17 SCID mice aged 6-8 weeks weighing between 16-18 g were used and maintained according to IACUC protocols.
# Tumor Inoculation: Each mouse was inoculated with OCI-Ly1 tumor cells (10×106) in 0.1 mL of RPMI with Matrigel. Treatment was initiated when the tumor sizes reached […].
# A PD Study in C.B.17 SCID Mice with OCI-LY1 Tumor Xenograft was Performed
# In FIG. 2, animals were dosed orally after tumors were inoculated and the tumor sizes reached […], with 5, 15, or 50 mg/kg formulated with 10% DMSO, 90% (2% Tween 80 in PEG 400) and sacrificed humanely 24 hours post-dose. Blood was obtained for isolation of plasma for terminal compound exposure. Tumors was removed and divided in 2 portions, one each for terminal compound concentration and for determination of IRAK-4 content. Compound concentrations were determined by LC/MS with calibrated standards. IRAK-4 content in tumor lysate was quantified by ELISA and normalized to total protein concentration per sample. […]
structure (smiles),measurement,setting,value
CC(C)Oc1cc2c(cc1NC(=O)c1cnn3cccnc13)CN(C1CCN(C(C)(C)C3CN(c4ccc5c(c4)C(=O)N(C4CCC(=O)NC4=O)C5=O)C3)CC1)C2=O (stereo not drawn) [Example 112],Dmax,IL6 [1]; read-out: LPS Stim IL6 inhibition Dmax,≥ 90%
same,IC50,IL6 [1]; read-out: LPS stim IL6 inhibition IC50,10 to 50 nM
same,Dmax,"IL6 [2]; Homo sapiens, 24 h, read-out: R848 stim IL6 inhibition Dmax",≥ 90%
same,IC50,IL6 [2]; read-out: R848 stim IL6 inhibition IC50,10 to 50 nM
same,IRAK-4 concentration in spleen and lung samples,IRAK-4 [3],much lower
same,DC50,IRAK-4 [4],1 to 5 nM
same,Dmax,IRAK-4 [4],≥ 90%
same,PBMC DC90,IRAK-4 [4],A (A represents a DC90 value <10.0 nM)
same,IRAK-4 concentration in the tumor samples,IRAK-4 [5],lower
